The values below come from patent US20240270741A1 (Cogent Biosciences, Inc., priority 2023, published 2024).

Broadly, the IC50 is the point on the concentration scale where inhibition reaches its midpoint.

SMILES strings stand for the structures.

Sequence of FGFR2 (P21802 399-821 limits assumed): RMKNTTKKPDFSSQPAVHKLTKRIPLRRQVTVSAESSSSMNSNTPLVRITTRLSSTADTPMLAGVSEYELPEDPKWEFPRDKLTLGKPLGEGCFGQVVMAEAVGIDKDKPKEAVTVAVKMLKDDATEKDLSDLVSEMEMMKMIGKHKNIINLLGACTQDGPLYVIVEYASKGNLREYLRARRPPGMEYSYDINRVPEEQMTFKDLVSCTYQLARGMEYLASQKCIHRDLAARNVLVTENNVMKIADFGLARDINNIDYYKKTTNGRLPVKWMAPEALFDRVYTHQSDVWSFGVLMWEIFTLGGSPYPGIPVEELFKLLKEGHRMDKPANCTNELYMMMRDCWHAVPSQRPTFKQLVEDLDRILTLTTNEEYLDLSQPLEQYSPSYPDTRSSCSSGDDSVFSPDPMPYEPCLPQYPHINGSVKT

The first experiment has as its target FGFR2 (Homo sapiens, UniProt P21802). Description: FGFR wild type enzyme assay (HTRF KinEASE-TK), FGFR2. Particulars: Enz FGFR2 (nM), FGFR2 wild type enzyme. In general terms: TR-FRET usually uses a lanthanide donor and a delayed reading to cut background.
With `Cc1c(-c2cc(Sc3ncccc3F)c3c(C#N)cnn3c2)cnn1[C@H]1CC[C@@H](NCC2(C)CC2)CC1` [Example 253, 4-((3-fluoropyridin-2-yl)thio)-6-(5-methyl-1-((1s,4s)-4-(((1-methylcyclopropyl)methyl)amino)cyclohexyl)-1H-pyrazol-4-yl)pyrazolo[1,5-a]pyridine-3-carbonitrile], the IC50 worked out at 0.6 nM.

Take `Cc1c(-c2cc(Sc3ncccc3F)c3c(C#N)cnn3c2)cnn1C1CCN(C[C@@H](C)O)CC1` [Example 143, (R)-4-((3-fluoropyridin-2-yl)thio)-6-(1-(1-(2-hydroxypropyl)piperidin-4-yl)-5-methyl-1H-pyrazol-4-yl)pyrazolo[1,5-a]pyridine-3-carbonitrile]: the IC50 is 2 nM.

For the compound `Cc1c(-c2cc(Sc3ncccc3F)c3c(C#N)cnn3c2)cnn1[C@@H](C)C1CCN(C)CC1` [Example 160, (S)-4-((3-fluoropyridin-2-yl)thio)-6-(5-methyl-1-(1-(1-methylpiperidin-4-yl)ethyl)-1H-pyrazol-4-yl)pyrazolo[1,5-a]pyridine-3-carbonitrile], the IC50 came out at 2 nM. That is a single-digit nanomolar value. Still for that read-out and setting: with `Cc1c(-c2cc(Sc3ccc(F)cn3)c3c(C#N)cnn3c2)cnn1[C@H]1C[C@H]2CC[C@@H](C1)N2C(=O)CO` [Example 309, 4-((5-fluoropyridin-2-yl)thio)-6-(1-((1R,3r,5S)-8-(2-hydroxyacetyl)-8-azabicyclo[3.2.1]octan-3-yl)-5-methyl-1H-pyrazol-4-yl)pyrazolo[1,5-a]pyridine-3-carbonitrile] the figure was 6 nM; with `Cc1c(-c2cc(Sc3ccc(F)cc3C#N)c3c(C#N)cnn3c2)cnn1[C@H]1CC[C@@](C)(N)CC1` [Example 325, 6-(1-((1s,4s)-4-amino-4-methylcyclohexyl)-5-methyl-1H-pyrazol-4-yl)-4-((2-cyano-4-fluorophenyl)thio)pyrazolo [1,5-a]pyridine-3-carbonitrile], 0.5 nM.

Regarding `CC(=O)N1CCO[C@@H](Cn2ncc(-c3cc(Sc4ccccc4C#N)c4c(C#N)cnn4c3)c2C)C1` [Example 278, (R)-6-(1-((4-acetylmorpholin-2-yl)methyl)-5-methyl-1H-pyrazol-4-yl)-4-((2-cyanophenyl)thio)pyrazolo [1,5-a]pyridine-3-carbonitrile], the IC50 was determined as 4 nM. As to `Cc1c(-c2cc(Sc3ccccc3C#N)c3c(C#N)cnn3c2)cnn1C1CC2CCC(C1)N2C` (stereo not drawn) [Example 199, 4-((2-cyanophenyl)thio)-6-(5-methyl-1-(8-methyl-8-azabicyclo[3.2.1]octan-3-yl)-1H-pyrazol-4 yl)pyrazolo[1,5-a]pyridine-3-carbonitrile], the IC50 turned out to be 1 nM.

Compound `CC(=O)N[C@H]1CC[C@@H](n2ncc(-c3cc(Sc4ncccc4F)c4c(C#N)cnn4c3)c2C)CC1` [Example 220, N-((1s,4S)-4-(4-(3-cyano-4-((3-fluoropyridin-2-yl)thio)pyrazolo[1,5-a]pyridin-6-yl)-5-methyl-1H-pyrazol-1-yl)cyclohexyl)acetamide] registered an IC50 of 5 nM. On the same count and under the same terms, with `CC(=O)N1C2CCC1CC(n1ncc(-c3cc(Sc4ncccc4F)c4c(C#N)cnn4c3)c1C)C2` (stereo not drawn) [Example 204, 6-(1-(8-acetyl-8-azabicyclo[3.2.1]octan-3-yl)-5-methyl-1H-pyrazol-4-yl)-4-((3-fluoropyridin-2-yl)thio)pyrazolo[1,5-a]pyridine-3-carbonitrile] the figure was 2 nM.

The experiment is the same for the next values; noted with them: Enz FGFR2 (nM), FGFR2 wild type enzyme assay.
Compound `Cc1c(-c2cc(Sc3ccccc3C#N)c3c(C#N)cnn3c2)cnn1C1CCN(C(=O)C(C)(C)O)CC1` [Example 589, 4-((2-cyanophenyl)thio)-6-(1-(1-(2-hydroxy-2-methylpropanoyl)piperidin-4-yl)-5-methyl-1H-pyrazol-4-yl)pyrazolo[1,5-a]pyridine-3-carbonitrile] displayed an IC50 of 1 nM. Same read-out and setting: with `Cc1c(-c2cc(Sc3ccccc3C#N)c3c(C#N)cnn3c2)cnn1C1CCN(C(=O)C(C)(C)C)CC1` [Example 437, 4-((2-cyanophenyl)thio)-6-(5-methyl-1-(1-pivaloylpiperidin-4-yl)-1H-pyrazol-4-yl)pyrazolo[1,5-a]pyridine-3-carbonitrile] the figure was 1 nM; with `N#Cc1cnn2cc(-c3cnn([C@H]4CCN(C5CC(O)C5)C4)c3)cc(Sc3ncccc3F)c12` (stereo partly drawn) [Example 476, (S)-4-((3-fluoropyridin-2-yl)thio)-6-(1-(1-(3-hydroxycyclobutyl)pyrroli-din-3-yl)-1H-pyrazol-4-yl)pyrazolo[1,5-a]pyridine-3-carbonitrile], 1 nM; with `N#Cc1cnn2cc(-c3ccc(N4CCC(O)CC4)nc3)cc(Sc3ncccc3F)c12` [Example 552, 4-((3-fluoropyridin-2-yl)thio)-6-(6-(4-hydroxypiperidin-1-yl)pyridin-3-yl)pyrazolo[1,5-a]pyridine-3-carbonitrile], 1 nM. Same read-out and setting: with `CC(=O)N1CC[C@H](n2cc(-c3cc(Sc4ccccc4C#N)c4c(C#N)cnn4c3)cn2)[C@@H](O)C1` [Example 458, 6-(1-((3S,4S)-1-acetyl-3-hydroxypiperidin-4-yl)-1H-pyrazol-4-yl)-4-((2-cyanophenyl)thio)pyrazolo [1,5-a]pyridine-3-carbonitrile] the figure was 1 nM; with `Cc1c(-c2cc(Sc3ccccc3C#N)c3c(C#N)cnn3c2)cnn1[C@H]1CCNC(=O)C1` [Example 644], 1.6 nM; with `Cc1noc(Cn2cc(-c3cc(Sc4ccccc4C#N)c4c(C#N)cnn4c3)cn2)n1` [Example 374, 4-((2-cyanophenyl)thio)-6-(1-((3-methyl-1,2,4-oxadiazol-5-yl)methyl)-1H-pyrazol-4-yl)pyrazolo[1,5-a]pyridine-3-carbonitrile], 1 nM.

The compound `Cn1cc(-c2cc(Sc3ccccc3C#N)c3c(C#N)cnn3c2)cn1` [Example 468, 4-((2-cyanophenyl)thio)-6-(1-methyl-1H-pyrazol-4-yl)pyrazolo[1,5-a]pyridine-3-carbonitrile] yielded an IC50 of 1 nM. Consider `CC(=O)N1CCC(n2cc(-c3cc(Sc4ncccc4F)c4c(C#N)cnn4c3)c(C)n2)CC1` [Example 401, 6-(1-(1-acetylpiperidin-4-yl)-3-methyl-1H-pyrazol-4-yl)-4-((3-fluoropyridin-2-yl)thio)pyrazolo[1,5-a]pyridine-3-carbonitrile], for which half-maximal inhibition (IC50) was put at 7 nM. Against the preceding compound, the IC50 is about 7-fold higher. On the same count and under the same terms, with `N#Cc1ccccc1Sc1cc(-c2cnn(C(F)(F)F)c2)cn2ncc(C#N)c12` [Example 607, 4-((2-cyanophenyl)thio)-6-(1-(trifluoromethyl)-1H-pyrazol-4-yl)pyrazolo[1,5-a]pyridine-3-carbonitrile] the figure was 10 nM; with `CC(=O)N1CCC[C@@H](n2cc(-c3cc(Sc4ccccc4C#N)c4c(C#N)cnn4c3)cn2)C1` [Example 537, (R)-6-(1-(1-acetylpiperidin-3-yl)-1H-pyrazol-4-yl)-4-((2-cyanophenyl)thio)pyrazolo [1,5-a]pyridine-3-carbonitrile], 1 nM. On the same count and under the same terms, with `Cn1ccc(-c2cc(Sc3ccc(F)cc3C#N)c3c(C#N)cnn3c2)cc1=O` [Example 587, 4-((2-cyano-4-fluorophenyl)thio)-6-(1-methyl-2-oxo-1,2-dihydropyridin-4-yl)pyrazolo[1,5-a]pyridine-3-carbonitrile] the figure was 43 nM; with `N#Cc1ccccc1Sc1cc(-c2cnn([C@H]3CCNC(=O)C3)c2)cn2ncc(C#N)c12` [Example 592, (S)-4-((2-cyanophenyl)thio)-6-(1-(2-oxopiperidin-4-yl)-1H-pyrazol-4-yl)pyrazolo[1,5-a]pyridine-3-carbonitrile], 1 nM; with `CN1CCC(n2ncc(-c3cc(Sc4ncccc4F)c4c(C#N)cnn4c3)c2Cl)CC1` [Example 395, 6-(5-chloro-1-(1-methylpiperidin-4-yl)-1H-pyrazol-4-yl)-4-((3-fluoropyridin-2-yl)thio)pyrazolo[1,5-a]pyridine-3-carbonitrile], 3 nM. Compound `CC(=O)N1CCC[C@H](n2ncc(-c3cc(Sc4nc(C)c(F)cc4F)c4c(C#N)cnn4c3)c2C)C1` [Example 431, (S)-6-(1-(1-acetylpiperidin-3-yl)-5-methyl-1H-pyrazol-4-yl)-4-((3,5-difluoro-6-methylpyridin-2-yl)thio)pyrazolo[1,5-a]pyridine-3-carbonitrile] showed an IC50 of 2 nM. On the same count and under the same terms, with `N#Cc1ccccc1Sc1cc(-c2ccc(N3C[C@@H](O)[C@@H](O)C3)nc2)cn2ncc(C#N)c12` [Example 660, 4-((2-cyanophenyl)thio)-6-(6-((3R,4S)-3,4-dihydroxypyrrolidin-1-yl)pyridin-3-yl)pyrazolo[1,5-a]pyridine-3-carbonitrile] the figure was 1 nM; with `Cc1c(-c2cc(Sc3cccc(Cl)c3C#N)c3c(C#N)cnn3c2)cnn1C1CCN(C)CC1` [Example 385, 4-((3-chloro-2-cyanophenyl)thio)-6-(5-methyl-1-(1-methylpiperidin-4-yl)-1H-pyrazol-4-yl)pyrazolo[1,5-a]pyridine-3-carbonitrile], 1.5 nM. The same measure, in the same setting: with `Cc1nn([C@H]2CC[C@H](O)CC2)cc1-c1cc(Sc2ccccc2C#N)c2c(C#N)cnn2c1` [Example 441, 4-((2-cyanophenyl)thio)-6-(1-((1r,4r)-4-hydroxycyclohexyl)-3-methyl-1H-pyrazol-4-yl)pyrazolo[1,5-a]pyridine-3-carbonitrile] the figure was 3 nM; with `CO[C@@H](C)C(=O)N1CCC(n2cc(-c3cc(Sc4ccccc4C#N)c4c(C#N)cnn4c3)cn2)CC1` [Example 564, (S)-4-((2-cyanophenyl)thio)-6-(1-(1-(2-methoxypropanoyl)piperidin-4-yl)-1H-pyrazol-4-yl)pyrazolo[1,5-a]pyridine-3-carbonitrile], 0.5 nM; with `Cc1cnc(Sc2cc(-c3cnn(C4CCN(C)CC4)c3C)cn3ncc(C#N)c23)c(F)c1` [Example 377, 4-((3-fluoro-5-methylpyridin-2-yl)thio)-6-(5-methyl-1-(1-methylpiperidin-4-yl)-1H-pyrazol-4-yl)pyrazolo[1,5-a]pyridine-3-carbonitrile], 11 nM. Regarding `C[C@]1(O)CC[C@H](n2cc(-c3cc(Sc4ccccc4C#N)c4c(C#N)cnn4c3)cn2)CC1` [Example 504, 4-((2-cyanophenyl)thio)-6-(1-((1r,4r)-4-hydroxy-4-methylcyclohexyl)-1H-pyrazol-4-yl)pyrazolo[1,5-a]pyridine-3-carbonitrile], half-maximal inhibition (IC50) required 0.4 nM.
